Laboratory results taken from publication PMC6761529 (Antimicrobial Agents and Chemotherapy, 2019).
“And” between values parts separate entries of the source, which are not always exact repeats. Equal values may be shown once. Read-outs that look alike come from different tables or passages of the source.

How the values were obtained:
[1] = test system: KPC variants expressed in K. pneumoniae Ecl8; type: cell-based, Klebsiella pneumoniae; conditions: in the presence of 4 mg liter^−1 relebactam
Excerpt: (§1) The pUBYT vector containing blaKPC-3 under the ISKpn7 promoter was used as a template for site-directed mutagenesis to create pUBYT containing blaKPC-2 and blaKPC-4 with the same promoter ([45]). The single point mutation in KPC-2 (Y274H) and double point mutations in KPC-4 (P104R, V240G) were introduced using a QuikChange Lightning site-directed mutagenesis kit (Agilent Genomics) with the primers specified in Table S1 in the supplemental material. Klebsiella pneumoniae Ecl8 was transformed with the resulting pUBYT constructs via electroporation.
(§2) MIC values were determined using broth microdilution, in triplicate, in cation-adjusted Mueller-Hinton broth (Sigma) according to the Clinical and Laboratory Standards Institute (CLSI) guidelines ([47]). […] Plates were incubated overnight at 37°C for 18 to 24 h, and the absorbance at 600 nm was read using a POLARstar Omega (BMG LabTech) plate reader.

S. maltophilia K279a [2] = assay: MIC broth microdilution, S. maltophilia K279a; type: cell-based; conditions: for MIC: Stenotrophomonas maltophilia, K279A, read-out: MIC of β-lactam
Description: S. maltophilia K279a is a well-characterized isolate from Bristol, United Kingdom, and was obtained as previously reported ([46]).
as §2

[3] = test system: K. pneumoniae Ecl8 pUBYT KPC-3; assay: microbe, parasite or virus in culture; type: cell-based; conditions: Klebsiella pneumoniae
Excerpt: as §1, §2

[4] = test system: K. pneumoniae Ecl8 pUBYT KPC-2; assay: microbe, parasite or virus in culture; type: cell-based; conditions: Klebsiella pneumoniae
Excerpt: as §1, §2

[5] = test system: K. pneumoniae Ecl8 pUBYT KPC-4; assay: microbe, parasite or virus in culture; type: cell-based; conditions: Klebsiella pneumoniae
Excerpt: as §1, §2

K. pneumoniae Ecl8 pUBYT = assay: MIC broth microdilution, K. pneumoniae Ecl8 pUBYT (empty vector); type: cell-based; conditions: Klebsiella pneumoniae, ECL8PUBYT, read-out: MIC of β-lactam
Excerpt: as §1, §2

L2 [6] = target: T1, L2 (Stenotrophomonas maltophilia, UniProt Q9RBQ1); assay: IC50, nitrocefin hydrolysis after 10-minute preincubation, L2; type: biochemical
Description: (§4) Kinetic parameters were calculated and analyzed using GraphPad Prism 6.
(§5) Diazabicyclooctanes were dissolved in DMSO (100 mM) and diluted to the desired concentration in 10 mM HEPES (pH 7.5) and 150 mM NaCl.

CTX-M-15 [7] = target: T2, CTX-M-15 (Escherichia coli, UniProt Q9EXV5); assay: biochemical
Description: as §4, §5

KPC-2 [8] = target: T3, KPC-2 (Klebsiella pneumoniae, UniProt Q9F663); conditions: after 24 hours of incubation; cited from earlier work
S. maltophilia K279a [9] = conditions: with avibactam; cited from earlier work
[10] = test system: O=C(Cc1cccs1)N[C@@H]1C(=O)N2C(C(=O)O)=C(/C=C/c3ccc([N+](=O)[O-])cc3[N+](=O)[O-])CS[C@H]12; assay: purified protein, by the assay type; conditions: other: nitrocefin as substrate; standard error in parentheses, n = 3; pH 7.5; 25.0 °C
KPC-3 [11] = target: T4, KPC-3 (Klebsiella pneumoniae, UniProt Q9F663, H272Y); type: biochemical; conditions: nitrocefin as substrate; standard error in parentheses, n = 3
Description: as §4

KPC-2 [12] = target: T3, KPC-2; type: biochemical; conditions: nitrocefin as substrate; standard error in parentheses, n = 3
Description: as §4

KPC-4 [13] = target: T5, KPC-4 (Klebsiella pneumoniae, UniProt Q9F663, P103R/V239G); assay: Steady-state nitrocefin hydrolysis, KPC-4; type: biochemical; conditions: nitrocefin as substrate; standard error in parentheses, n = 3
Description: as §4

KPC-2 [14] = target: T3, KPC-2; conditions: cited from earlier work
L2 [15] = target: T1, L2; assay: Direct competition of relebactam and nitrocefin (Kiapp, k2/K), L2; type: biochemical; conditions: Dixon plot, no preincubation; standard deviation in parentheses
Description: as §4
(2) E+I⇌k−1k1E:I⇌k−2k2E-I→k3E-I′→k4E+P
(§6) Complete progress curves were fitted to equation 5 in order to obtain values for kobs (pseudo-first-order rate constant for inactivation).(5) A=vf*t+(v0−vf)*((1−e^−kobs*t)/kobs)+A0
(§7) ([I]) according to equation 6, with the uncorrected value for k2/K (k2/K′) then equal to the slope of the line.(6) kobs=k−2+k2/K^′*[I]

KPC-3 [16] = target: T4, KPC-3
Description: (§3) Final enzyme concentrations were as follows: 50 nM KPC-2, 5 nM KPC-3, 50 nM KPC-4, 50 pM CTX-M-15, and 50 pM L2. Complete progress curves were collected, and the results fitted to equation 8 to obtain koff.(8) A=vf*t+(v0−vf)*(1−e^−kofft)/koff+A0

KPC-4 [17] = target: T5, KPC-4
Description: as §3

CTX-M-15 [18] = target: T2, CTX-M-15; conditions: recombinant enzyme
Description: as §3

L2 [19] = target: T1, L2; conditions: recombinant enzyme
Description: as §3

KPC-2 [20] = target: T3, KPC-2; conditions: recombinant enzyme
Description: as §3

[21] = target: Pseudomonas-derived cephalosporinase-3 (PDC-3); conditions: read-out: Kiapp; cited from earlier work
CTX-M-15 [22] = target: T2, CTX-M-15; assay: Direct competition of relebactam and nitrocefin (Kiapp, k2/K), CTX-M-15; type: biochemical
Description: as §4
(2) E+I⇌k−1k1E:I⇌k−2k2E-I→k3E-I′→k4E+P
as §6, §7

OXA-48 = target: OXA-48; parameters: method as in PMID 29627985; conditions: cited from earlier work
KPC-2 [23] = target: T3, KPC-2; parameters: method as in PMID 29627985; conditions: cited from earlier work
[24] = ECL8PUBYTKPC3, read-out: MIC of β-lactam, no inhibitor present
[25] = ECL8PUBYTKPC2, read-out: MIC of β-lactam, no inhibitor present
[26] = ECL8PUBYTKPC4, read-out: MIC of β-lactam, no inhibitor present

C[C@@H](O)[C@H]1C(=O)N2C(C(=O)O)=C(SCCN=CN)C[C@H]12 [Imipenem, imipenem]
imipenem MICs in all KPC producers [1]: ≤ 0.5 mg/L
MIC (S. maltophilia K279a [2]; +REL (relebactam, 4 mg/liter)): 64 µg/mL
MIC (S. maltophilia K279a [2]; no inhibitor present): 128 µg/mL
MIC ([3]; ECL8PUBYTKPC3, read-out: MIC of β-lactam, +REL (relebactam, 4 mg/liter)): < 0.125 µg/mL
MIC [3, 24]: 16 µg/mL
MIC ([4]; ECL8PUBYTKPC2, read-out: MIC of β-lactam, +REL (relebactam, 4 mg/liter)): 0.5 µg/mL
MIC [4, 25]: 64 µg/mL
MIC ([5]; ECL8PUBYTKPC4, read-out: MIC of β-lactam, +REL (relebactam, 4 mg/liter)): 0.125 µg/mL
MIC [5, 26]: 0.5 µg/mL
MIC (K. pneumoniae Ecl8 pUBYT): < 0.0625 µg/mL

NC(=O)[C@@H]1CC[C@@H]2CN1C(=O)N2OS(=O)(=O)O [Avibactam, avibactam]
IC50 (L2 [6]): 15 nM
IC50 (CTX-M-15 [7]): 3.4 nM
KPC-2 remaining acylated (KPC-2 [8]): 10%

CC(C)(O/N=C(\C(=O)N[C@@H]1C(=O)N2C(C(=O)[O-])=C(C[n+]3ccccc3)CS[C@H]12)c1csc(N)n1)C(=O)O [Ceftazidime, ceftazidime]
MIC (S. maltophilia K279a [2]; +AVI (avibactam, 4 mg/liter)): 8 µg/mL
MIC (S. maltophilia K279a [2]; no inhibitor present): 16 µg/mL
MIC ([3]; ECL8PUBYTKPC3, read-out: MIC of β-lactam, +AVI (avibactam, 4 mg/liter)): < 0.125 µg/mL
MIC [3, 24]: 128 µg/mL
MIC ([4]; ECL8PUBYTKPC2, read-out: MIC of β-lactam, +AVI (avibactam, 4 mg/liter)): 0.125 µg/mL
MIC [4, 25]: 16 µg/mL
MIC ([5]; ECL8PUBYTKPC4, read-out: MIC of β-lactam, +AVI (avibactam, 4 mg/liter)): 1 µg/mL
MIC [5, 26]: 128 µg/mL
MIC (K. pneumoniae Ecl8 pUBYT): < 0.125 µg/mL

C[C@H]1[C@H](NC(=O)/C(=N\OC(C)(C)C(=O)O)c2csc(N)n2)C(=O)N1S(=O)(=O)O [Aztreonam, aztreonam]
MIC (S. maltophilia K279a [2]; +REL (relebactam, 4 mg/liter)): 8 µg/mL
MIC (S. maltophilia K279a [2]; no inhibitor present): > 256 µg/mL
aztreonam MIC (S. maltophilia K279a [2]; addition of relebactam): 8 µg/mL
aztreonam MIC (S. maltophilia K279a [2]; without inhibitor): 256 µg/mL
aztreonam MIC (S. maltophilia K279a [9]): 2 µg/mL

L2 (Stenotrophomonas maltophilia)
Km [10]: 206 (27) µM
kcat [10]: 813 (41) s-1
kcat/Km [10]: 4e+06 M⁻¹ s⁻¹

O=C(Cc1cccs1)N[C@@H]1C(=O)N2C(C(=O)O)=C(/C=C/c3ccc([N+](=O)[O-])cc3[N+](=O)[O-])CS[C@H]12 [Nitrocefin, nitrocefin]
Km (KPC-3 [11]): 36 µM
kcat (KPC-3 [11]): 88 (8) s-1
Km (KPC-2 [12]): 18.3 µM
kcat (KPC-2 [12]): 613 (9) s-1
Km (KPC-4 [13]): 59 µM
kcat (KPC-4 [13]): 166 (44) s-1

O=C(NNC(=O)[C@@H]1CC[C@@H]2CN1C(=O)N2OS(=O)(=O)O)[C@@H]1CCCNC1 [WCK-5107, zidebactam]
Ki value, fold higher than avibactam (KPC-2 [14]): 5 fold
Ki value, fold higher than relebactam (KPC-2 [14]): 2 fold

O=C(NC1CCNCC1)[C@@H]1CC[C@@H]2CN1C(=O)N2OS(=O)(=O)O [Relebactam, relebactam]
Ki (L2 [15]): 3000 nM and 2700 nM
IC50 (L2 [6]): 470 nM
IC50 (CTX-M-15 [7]): 400 nM
reduction in off-rate compared with KPC-2 (KPC-3 [16]; KPC-3 vs KPC-2): ~4.5 fold
t1/2 (KPC-3 [16]; recombinant enzyme): 58 min
reduction in off-rate compared with KPC-2 (KPC-4 [17]; KPC-4 vs KPC-2): ~4.5 fold
t1/2 (KPC-4 [17]; recombinant enzyme): 61 min
t1/2 (CTX-M-15 [18]): 30 min
t1/2 (L2 [19]): 21 min
t1/2 (KPC-2 [20]): 13 min
Ki [21]: 3400 nM
Ki (CTX-M-15 [22]): 21000 nM

CTX-M-15 (Escherichia coli)
Km [10]: 63 (11) µM
kcat [10]: 312 (8) s-1
kcat/Km [10]: 5e+06 M⁻¹ s⁻¹

N#C[C@@H]1CC[C@@H]2CN1C(=O)N2OS(=O)(=O)O [WCK-4234]
Ki (OXA-48): 290 nM
off rate (KPC-2 [23]): 0.00045 s⁻¹
